Patent US20250145606A1 (Arcus Biosciences, Inc., priority 2023, published 2025)
Where two headings read alike, the source gives them in different places.

Tests used:
PDGFRα = PDGFRα (Homo sapiens (Human), UniProt P16234); test: Inhibition of PDGFRα kinase activity (HTRF KinEASE-TK); conditions: biochemical
How it was run: (§1)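 Recombinant kinases (2 nM CSF1R and c-Kit, 10 nM PDGFRα/β, 2× working) preincubated 1 h with compound in 50 mM HEPES pH 7.4, 5 mM MgCl2 (c-Kit) or 10 mM (others), 2 mM MnCl2; 2× ATP: c-Kit 16 μM, PDGFRα 1 μM, PDGFRβ 40 μM, CSF1R 20 μM. 120 min reaction at rt; TR-FRET 665/620 nm; IC50 by 4-parameter fit.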

c-Kit = c-Kit (Homo sapiens (Human), UniProt P10721); test: Inhibition of c-Kit kinase activity (HTRF KinEASE-TK); assay type: biochemical; conditions: biochemical
How it was run: as §1

PDGFRβ = PDGFRβ (Homo sapiens (Human), UniProt P09619); test: Inhibition of PDGFRβ kinase activity (HTRF KinEASE-TK); conditions: biochemical
How it was run: as §1

FLT3 = FLT3 (Homo sapiens (Human), UniProt P36888); test: Inhibition of FLT3 kinase activity (HTRF KinEASE-TK); assay type: biochemical; conditions: biochemical
How it was run: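 FLT3 tyrosine kinase activity was measured with the HTRF KinEASE-TK kit by following phosphorylation of a biotinylated TK peptide. After the 45 min reaction, 10 μL of detection mix was added: 0.2 μM (2×) Streptavidin-XL665 and 2 μM (2×) TK-Antibody-Cryptate in detection buffer. After 60 min, TR-FRET was read on an Envision as the 665 nm/620 nm emission ratio with 320 nm excitation.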

[1] = test system: Phospho-KIT (Y703) in M07e cells; test: Phospho-KIT (Y703) cellular assay in M07e cells; assay type: cell-based; conditions: read-out: M07e Cell IC50
How it was run: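 Serum-starved M07e cells preincubated 50 min at 37° C with 11-point half-log compound titration, then stimulated 10 min with SCF at 90.9 ng/mL final. Fixed, permeabilized cells stained for phospho-KIT Y703 and read by flow cytometry (live-gated geometric mean); IC50 by 4-parameter fit normalized to DMSO and positive control.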

CSF1R = CSF1R (Homo sapiens (Human), UniProt P07333); test: Inhibition of CSF1R kinase activity (HTRF KinEASE-TK); conditions: biochemical
How it was run: as §1

[2] = M-07e, Phospho-KIT (Y703), M07e cells
[3] = M-07e, phospho-KIT (Y703), SCF-stimulated M07e cells

Sequence of FLT3 (P36888 27-993): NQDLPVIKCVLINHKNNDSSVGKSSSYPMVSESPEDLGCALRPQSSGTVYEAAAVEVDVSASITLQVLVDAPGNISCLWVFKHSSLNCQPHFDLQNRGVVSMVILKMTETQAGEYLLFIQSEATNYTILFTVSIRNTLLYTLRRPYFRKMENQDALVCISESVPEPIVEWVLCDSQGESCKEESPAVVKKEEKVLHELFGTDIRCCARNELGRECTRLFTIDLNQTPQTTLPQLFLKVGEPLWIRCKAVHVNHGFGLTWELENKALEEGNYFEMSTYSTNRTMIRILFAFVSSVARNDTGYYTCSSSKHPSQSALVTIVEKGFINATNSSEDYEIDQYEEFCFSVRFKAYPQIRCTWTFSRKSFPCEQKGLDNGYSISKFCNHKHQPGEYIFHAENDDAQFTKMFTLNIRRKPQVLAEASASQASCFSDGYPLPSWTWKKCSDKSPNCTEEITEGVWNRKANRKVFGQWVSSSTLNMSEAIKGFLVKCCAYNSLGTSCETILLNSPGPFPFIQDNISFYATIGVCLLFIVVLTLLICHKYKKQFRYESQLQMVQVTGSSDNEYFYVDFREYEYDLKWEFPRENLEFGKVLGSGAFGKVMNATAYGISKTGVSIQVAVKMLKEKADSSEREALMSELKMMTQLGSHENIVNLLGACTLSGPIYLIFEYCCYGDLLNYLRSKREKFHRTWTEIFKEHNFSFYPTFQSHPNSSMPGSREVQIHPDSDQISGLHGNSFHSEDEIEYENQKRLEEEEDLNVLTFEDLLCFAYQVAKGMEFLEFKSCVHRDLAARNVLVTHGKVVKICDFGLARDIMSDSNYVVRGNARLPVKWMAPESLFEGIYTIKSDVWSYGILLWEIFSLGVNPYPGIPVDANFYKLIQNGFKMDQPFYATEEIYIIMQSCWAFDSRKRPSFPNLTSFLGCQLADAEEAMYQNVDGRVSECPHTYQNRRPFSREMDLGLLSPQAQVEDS
Sequence of CSF1R (P07333 20-972): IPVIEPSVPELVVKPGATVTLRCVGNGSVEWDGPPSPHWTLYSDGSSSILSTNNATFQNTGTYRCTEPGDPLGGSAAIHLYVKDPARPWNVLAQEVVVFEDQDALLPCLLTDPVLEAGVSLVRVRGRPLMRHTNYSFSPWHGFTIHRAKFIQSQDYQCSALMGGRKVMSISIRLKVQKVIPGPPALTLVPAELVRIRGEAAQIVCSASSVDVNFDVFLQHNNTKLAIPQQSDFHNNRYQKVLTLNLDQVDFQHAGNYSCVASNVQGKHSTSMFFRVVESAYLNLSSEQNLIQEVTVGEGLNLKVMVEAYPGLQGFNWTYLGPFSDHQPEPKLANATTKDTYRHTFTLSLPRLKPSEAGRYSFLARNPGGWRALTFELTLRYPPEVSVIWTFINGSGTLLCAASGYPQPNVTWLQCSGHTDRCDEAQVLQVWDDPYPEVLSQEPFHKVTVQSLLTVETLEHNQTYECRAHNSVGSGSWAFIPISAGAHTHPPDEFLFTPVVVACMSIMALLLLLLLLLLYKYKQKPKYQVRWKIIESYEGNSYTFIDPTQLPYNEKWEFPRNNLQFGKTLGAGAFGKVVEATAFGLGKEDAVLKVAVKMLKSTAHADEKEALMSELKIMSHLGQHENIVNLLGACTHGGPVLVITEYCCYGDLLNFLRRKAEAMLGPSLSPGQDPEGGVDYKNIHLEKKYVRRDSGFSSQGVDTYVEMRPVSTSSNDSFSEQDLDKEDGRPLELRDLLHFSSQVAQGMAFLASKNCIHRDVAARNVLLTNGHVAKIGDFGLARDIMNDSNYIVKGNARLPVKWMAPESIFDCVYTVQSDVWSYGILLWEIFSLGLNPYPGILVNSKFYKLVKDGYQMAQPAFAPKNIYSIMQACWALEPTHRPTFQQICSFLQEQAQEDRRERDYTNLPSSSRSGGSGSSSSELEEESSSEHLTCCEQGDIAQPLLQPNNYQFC
Sequence of PDGFRα (P16234 24-1089): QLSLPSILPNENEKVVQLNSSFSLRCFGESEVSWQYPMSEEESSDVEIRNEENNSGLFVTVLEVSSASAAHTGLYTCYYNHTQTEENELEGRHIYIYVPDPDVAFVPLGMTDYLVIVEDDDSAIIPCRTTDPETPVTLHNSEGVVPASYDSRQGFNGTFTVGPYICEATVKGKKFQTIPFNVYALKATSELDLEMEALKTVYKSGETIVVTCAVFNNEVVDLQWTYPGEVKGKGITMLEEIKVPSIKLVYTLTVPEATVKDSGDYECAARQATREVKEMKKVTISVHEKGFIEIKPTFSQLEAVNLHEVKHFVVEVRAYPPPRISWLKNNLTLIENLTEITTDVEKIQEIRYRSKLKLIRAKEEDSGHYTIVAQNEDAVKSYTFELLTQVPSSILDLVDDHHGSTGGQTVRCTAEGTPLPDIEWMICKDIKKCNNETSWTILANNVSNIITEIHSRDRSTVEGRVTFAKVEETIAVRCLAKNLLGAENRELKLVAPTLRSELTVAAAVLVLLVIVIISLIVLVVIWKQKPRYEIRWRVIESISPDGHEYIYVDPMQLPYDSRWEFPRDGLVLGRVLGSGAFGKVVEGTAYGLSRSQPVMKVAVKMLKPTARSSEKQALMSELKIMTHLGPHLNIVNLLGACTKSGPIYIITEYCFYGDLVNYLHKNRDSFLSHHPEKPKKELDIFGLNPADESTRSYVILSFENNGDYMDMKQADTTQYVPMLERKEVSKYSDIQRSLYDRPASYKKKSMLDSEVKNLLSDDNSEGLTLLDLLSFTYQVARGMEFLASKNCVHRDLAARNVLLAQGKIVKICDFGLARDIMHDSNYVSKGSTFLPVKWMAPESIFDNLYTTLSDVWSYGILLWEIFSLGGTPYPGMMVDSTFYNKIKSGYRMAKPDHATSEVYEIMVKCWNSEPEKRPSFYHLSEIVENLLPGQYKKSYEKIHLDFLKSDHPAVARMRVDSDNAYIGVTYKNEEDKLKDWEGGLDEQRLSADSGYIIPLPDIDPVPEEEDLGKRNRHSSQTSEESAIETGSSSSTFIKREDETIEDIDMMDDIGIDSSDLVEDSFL
Sequence of c-Kit (P10721 26-976): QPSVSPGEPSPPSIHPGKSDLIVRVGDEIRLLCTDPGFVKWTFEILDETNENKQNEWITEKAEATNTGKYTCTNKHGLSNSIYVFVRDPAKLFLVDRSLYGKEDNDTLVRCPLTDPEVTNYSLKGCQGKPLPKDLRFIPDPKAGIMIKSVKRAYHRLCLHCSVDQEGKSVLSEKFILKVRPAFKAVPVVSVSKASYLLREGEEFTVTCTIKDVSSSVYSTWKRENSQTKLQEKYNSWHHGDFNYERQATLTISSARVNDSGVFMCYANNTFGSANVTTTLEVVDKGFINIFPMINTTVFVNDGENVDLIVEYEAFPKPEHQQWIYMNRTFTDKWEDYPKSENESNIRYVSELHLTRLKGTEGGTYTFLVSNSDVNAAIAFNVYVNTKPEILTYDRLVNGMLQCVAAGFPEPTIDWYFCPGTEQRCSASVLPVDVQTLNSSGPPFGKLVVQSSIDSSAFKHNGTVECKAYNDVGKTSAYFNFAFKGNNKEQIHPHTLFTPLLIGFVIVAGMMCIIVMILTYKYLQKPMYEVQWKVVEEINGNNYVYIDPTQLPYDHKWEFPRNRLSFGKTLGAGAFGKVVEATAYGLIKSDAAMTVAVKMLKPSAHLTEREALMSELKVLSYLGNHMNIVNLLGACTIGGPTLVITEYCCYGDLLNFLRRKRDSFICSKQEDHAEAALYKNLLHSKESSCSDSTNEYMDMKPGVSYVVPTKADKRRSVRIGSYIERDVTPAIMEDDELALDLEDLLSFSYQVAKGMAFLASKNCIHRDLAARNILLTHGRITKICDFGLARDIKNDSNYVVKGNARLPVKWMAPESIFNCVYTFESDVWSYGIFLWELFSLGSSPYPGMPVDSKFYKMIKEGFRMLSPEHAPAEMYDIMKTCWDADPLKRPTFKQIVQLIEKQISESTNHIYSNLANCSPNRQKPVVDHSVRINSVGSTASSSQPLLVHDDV
Sequence of PDGFRβ (P09619 33-1106): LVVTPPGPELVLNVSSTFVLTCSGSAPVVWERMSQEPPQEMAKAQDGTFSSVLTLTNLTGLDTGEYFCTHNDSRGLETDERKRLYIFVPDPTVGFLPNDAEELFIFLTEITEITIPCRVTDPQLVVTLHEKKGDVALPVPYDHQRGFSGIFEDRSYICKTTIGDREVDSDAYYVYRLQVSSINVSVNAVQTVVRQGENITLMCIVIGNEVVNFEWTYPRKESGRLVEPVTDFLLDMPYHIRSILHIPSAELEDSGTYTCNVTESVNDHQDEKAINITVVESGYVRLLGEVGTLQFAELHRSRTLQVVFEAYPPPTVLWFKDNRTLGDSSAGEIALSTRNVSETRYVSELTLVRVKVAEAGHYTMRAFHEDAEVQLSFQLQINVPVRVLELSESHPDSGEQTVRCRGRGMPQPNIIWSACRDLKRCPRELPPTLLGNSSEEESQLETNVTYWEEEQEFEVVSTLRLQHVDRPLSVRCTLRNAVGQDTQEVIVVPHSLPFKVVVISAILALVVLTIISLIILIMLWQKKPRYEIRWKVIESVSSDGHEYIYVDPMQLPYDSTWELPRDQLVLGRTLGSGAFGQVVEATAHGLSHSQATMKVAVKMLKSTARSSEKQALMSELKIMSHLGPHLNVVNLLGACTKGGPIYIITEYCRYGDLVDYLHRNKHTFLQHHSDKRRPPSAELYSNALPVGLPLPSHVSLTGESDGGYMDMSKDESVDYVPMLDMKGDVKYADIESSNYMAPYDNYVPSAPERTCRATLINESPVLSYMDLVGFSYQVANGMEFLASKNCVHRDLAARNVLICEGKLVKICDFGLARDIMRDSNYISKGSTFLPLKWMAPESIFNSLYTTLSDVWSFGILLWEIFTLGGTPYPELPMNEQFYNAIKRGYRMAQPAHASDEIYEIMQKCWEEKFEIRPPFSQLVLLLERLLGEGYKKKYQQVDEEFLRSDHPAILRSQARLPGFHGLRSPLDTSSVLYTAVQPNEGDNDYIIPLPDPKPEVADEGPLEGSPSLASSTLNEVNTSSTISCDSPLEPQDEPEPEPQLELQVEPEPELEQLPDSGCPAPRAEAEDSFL

IC50 (PDGFRα; HTRF KinEASE-TK) [µM] | IC50 (c-Kit; HTRF KinEASE-TK) [µM] | IC50 (PDGFRβ; HTRF KinEASE-TK) [µM] | IC50 (FLT3; HTRF KinEASE-TK) [µM] | IC50 [1, 2] [µM] | IC50 (CSF1R; HTRF KinEASE-TK) [µM] | IC50 (PDGFRα) [µM] | IC50 (c-Kit) [µM] | IC50 (PDGFRβ) [µM] | IC50 (FLT3) [µM] | IC50 [1, 3] [µM] | IC50 (CSF1R) [µM] | Compound | IC50 [1] [µM] | IC50 ([1]; M-07e) [µM]
> 1 | < 0.1 | 0.1 to 1 | > 1 | < 0.1 | 0.1 to 1 |  |  |  |  |  |  | Nc1ncc(C(=O)Nc2cc(C(=O)Nc3ncc(C4CC4)cn3)c(F)cc2Cl)s1 [Example 203, 2-Amino-N-[2-chloro-5-[(5-cyclopropylpyrimidin-2-yl)carbamoyl]-4-fluorophenyl]-1,3-thiazole-5-carboxamide] |  | 
> 1 | < 0.1 | > 1 | > 1 | < 0.1 | > 1 |  |  |  |  |  |  | CCn1ccc(NC(=O)c2cc(NC(=O)c3cnc(N)s3)c(C)cc2F)n1 [Example 179, 2-Amino-N-[5-[(1-ethylpyrazol-3-yl)carbamoyl]-4-fluoro-2-methylphenyl]-1,3-thiazole-5-carboxamide] |  | 
> 1 | < 0.1 | > 1 | > 1 | < 0.1 | > 1 |  |  |  |  |  |  | COCCc1ccc(NC(=O)c2cc(NC(=O)c3cnc(N)s3)c(C)cc2F)nc1 [Example 245, 2-Amino-N-[4-fluoro-5-[[5-(2-methoxyethyl)pyridin-2-yl]carbamoyl]-2-methylphenyl]-1,3-thiazole-5-carboxamide] |  | 
> 1 | < 0.1 | 0.1 to 1 | > 1 | < 0.1 | > 1 |  |  |  |  |  |  | CO[C@@H](C)c1ccc(NC(=O)c2cc(NC(=O)c3cnc(N)s3)c(C)cc2F)nc1 [Example 257, 2-Amino-N-[4-fluoro-5-[[5-[(1S)-1-methoxyethyl]pyridin-2-yl]carbamoyl]-2-methylphenyl]-1,3-thiazole-5-carboxamide] |  | 
> 1 | < 0.1 | 0.1 to 1 | > 1 | < 0.1 | 0.1 to 1 |  |  |  |  |  |  | Nc1ncc(C(=O)Nc2cc(C(=O)Nc3ccc(C(F)F)cn3)c(F)cc2Cl)s1 [Example 206, 2-Amino-N-[2-chloro-5-[[5-(difluoromethyl)pyridin-2-yl]carbamoyl]-4-fluorophenyl]-1,3-thiazole-5-carboxamide] |  | 
> 1 | < 0.1 | > 1 | > 1 | < 0.1 | > 1 |  |  |  |  |  |  | COCc1ccc(NC(=O)c2cc(NC(=O)c3cnc(N)s3)c(Cl)cc2F)nc1 [Example 202, 2-Amino-N-[2-chloro-4-fluoro-5-[[5-(methoxymethyl)pyridin-2-yl]carbamoyl]phenyl]-1,3-thiazole-5-carboxamide] |  | 
0.1 to 1 | < 0.1 | < 0.1 | > 1 | < 0.1 | < 0.1 |  |  |  |  |  |  | Nc1ncc(C(=O)Nc2cc(C(=O)Nc3cnc(C4CC4)cn3)c(F)cc2Cl)s1 [Example 205, 2-Amino-N-[2-chloro-5-[(5-cyclopropylpyrazin-2-yl)carbamoyl]-4-fluorophenyl]-1,3-thiazole-5-carboxamide] |  | 
> 1 | < 0.1 | 0.1 to 1 | > 1 | < 0.1 | > 1 |  |  |  |  |  |  | Cc1cc(F)c(C(=O)NCC2(F)CCC2)cc1NC(=O)c1cnc(N)s1 [Example 192, 2-amino-N-[4-fluoro-5-[(1-fluorocyclobutyl)methylcarbamoyl]-2-methylphenyl]-1,3-thiazole-5-carboxamide] |  | 

More lines, now with the values behind:

Compound | IC50 (PDGFRα; HTRF KinEASE-TK) [µM] | IC50 (c-Kit; HTRF KinEASE-TK) [µM] | IC50 (PDGFRβ; HTRF KinEASE-TK) [µM] | IC50 (FLT3; HTRF KinEASE-TK) [µM] | IC50 [1, 2] [µM] | IC50 (CSF1R; HTRF KinEASE-TK) [µM] | IC50 (PDGFRα) [µM] | IC50 (c-Kit) [µM] | IC50 (PDGFRβ) [µM] | IC50 (FLT3) [µM] | IC50 [1, 3] [µM] | IC50 (CSF1R) [µM] | IC50 [1] [µM] | IC50 ([1]; M-07e) [µM]
Cc1cc(F)c(C(=O)Nc2ccc(C3CC3)cn2)cc1NC(=O)c1cnc(N)s1 [Example 130, 2-Amino-N-[5-[(5-cyclopropylpyridin-2-yl)carbamoyl]-4-fluoro-2-methylphenyl]-1,3-thiazole-5-carboxamide] | 0.1 to 1 | < 0.1 | 0.1 to 1 | > 1 | < 0.1 | 0.1 to 1 |  |  |  |  |  |  |  | 
COCC1(c2ccc(NC(=O)c3cc(NC(=O)c4cnc(N)s4)c(C)cc3F)nc2)CC1 [Example 244] | > 1 | < 0.1 | 0.1 to 1 | > 1 |  | 0.1 to 1 |  |  |  |  |  |  | < 0.1 | 
Cc1cc(F)c(C(=O)Nc2ccc(CC(F)(F)F)cn2)cc1NC(=O)c1cnc(N)s1 [Example 11, 2-Amino-N-[4-fluoro-2-methyl-5-[[5-(2,2,2-trifluoroethyl)pyridin-2-yl]carbamoyl]phenyl]-1,3-thiazole-5-carboxamide] |  |  |  |  |  |  | 0.1 to 1 | < 0.1 | < 0.1 | > 1 | < 0.1 | 0.1 to 1 |  | 
Cc1ncc(C(=O)Nc2cc(C(=O)Nc3ccc(CC(F)F)cn3)c(F)cc2C)s1 [Example 45, N-[5-[[5-(2,2-difluoroethyl)pyridin-2-yl]carbamoyl]-4-fluoro-2-methylphenyl]-2-methyl-1,3-thiazole-5-carboxamide] | > 1 | < 0.1 | > 1 | > 1 |  | > 1 |  |  |  |  |  |  |  | < 0.1
Cc1cc(F)c(C(=O)Nc2ccccn2)cc1NC(=O)c1cnc(N)s1 [Example 132, 2-Amino-N-[4-fluoro-2-methyl-5-(pyridin-2-ylcarbamoyl)phenyl]-1,3-thiazole-5-carboxamide] | > 1 | < 0.1 | > 1 | > 1 | < 0.1 | > 1 |  |  |  |  |  |  |  | 
Cc1ncc(C(=O)Nc2cc(C(=O)Nc3ccc(OC(C)C)cn3)c(F)cc2C)s1 [Example 40, N-[4-fluoro-2-methyl-5-[(5-propan-2-yloxypyridin-2-yl)carbamoyl]phenyl]-2-methyl-1,3-thiazole-5-carboxamide] | > 1 | < 0.1 | > 1 | > 1 | < 0.1 | > 1 |  |  |  |  |  |  |  | 
Cc1ncc(C(=O)Nc2cc(C(=O)Nc3cnc(N4CCC[C@@H]4C)cn3)c(F)cc2C)s1 [Example 83, N-(5-{N-5-[(S)-2-methyl-1-pyrrolidinyl]-2-pyrazinylcarbamoyl}-4-fluoro-2-tolyl)-2-methyl-1,3-thiazole-5-carboxamide] | > 1 | < 0.1 | > 1 | > 1 | < 0.1 | > 1 |  |  |  |  |  |  |  | 
Cc1cc(F)c(C(=O)Nc2ccn(CC(C)C)n2)cc1NC(=O)c1cnc(N)s1 [Example 142, 2-Amino-N-[4-fluoro-2-methyl-5-[[1-(2-methylpropyl)pyrazol-3-yl]carbamoyl]phenyl]-1,3-thiazole-5-carboxamide] | 0.1 to 1 | < 0.1 | 0.1 to 1 | > 1 | < 0.1 | > 1 |  |  |  |  |  |  |  | 
Cc1cc(F)c(C(=O)N[C@H]2CCOC2)cc1NC(=O)c1cnc(NC(=O)N2CCC2)s1 [Example 102, 2-(Azetidine-1-carbonylamino)-N-[4-fluoro-2-methyl-5-[[(3S)-oxolan-3-yl]carbamoyl]phenyl]-1,3-thiazole-5-carboxamide] | > 1 | < 0.1 | > 1 | > 1 | 0.1 to 1 | 0.1 to 1 |  |  |  |  |  |  |  | 
Cc1cc(F)c(C(=O)Nc2ccc(C3CC3)nn2)cc1NC(=O)c1cnc(N)s1 [Example 135, 2-Amino-N-[5-[(6-cyclopropylpyridazin-3-yl)carbamoyl]-4-fluoro-2-methylphenyl]-1,3-thiazole-5-carboxamide] | 0.1 to 1 | < 0.1 | < 0.1 | > 1 | < 0.1 | 0.1 to 1 |  |  |  |  |  |  |  | 
Cc1cc(F)c(C(=O)Nc2ccc(CC3CC3)cn2)cc1NC(=O)c1cnc(N)s1 [Example 7, 2-Amino-N-[5-[[5-(cyclopropylmethyl)pyridin-2-yl]carbamoyl]-4-fluoro-2-methylphenyl]-1,3-thiazole-5-carboxamide] |  |  |  |  |  |  | 0.1 to 1 | < 0.1 | < 0.1 | > 1 | < 0.1 | 0.1 to 1 |  | 
Cc1cc(F)c(C(=O)Nc2ccc(C3(C#N)CC3)cn2)cc1NC(=O)c1cnc(N)s1 [Example 118, 2-Amino-N-[5-[[5-(1-cyanocyclopropyl)pyridin-2-yl]carbamoyl]-4-fluoro-2-methylphenyl]-1,3-thiazole-5-carboxamide] | > 1 | < 0.1 | 0.1 to 1 | > 1 | < 0.1 | 0.1 to 1 |  |  |  |  |  |  |  | 
Cc1cc(F)c(C(=O)Nc2ccn(C3CCOCC3)n2)cc1NC(=O)c1cnc(N)s1 [Example 150, 2-Amino-N-[4-fluoro-2-methyl-5-[[1-(oxan-4-yl)pyrazol-3-yl]carbamoyl]phenyl]-1,3-thiazole-5-carboxamide] | > 1 | < 0.1 | > 1 | > 1 | < 0.1 | > 1 |  |  |  |  |  |  |  | 
